In ChEMBL document CHEMBL1201862, “PubChem BioAssay data set” (2004):
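48-hour exposure; five concentrations; linearly interpolated endpoints. Abbreviation: GI50, concentration required for 50% inhibition of growth.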 Active and inactive are the calls of the source. Cut-off read from the data, not from the text of the source: active = GI50 up to about 1.1 µM and inactive = higher.

Columns and labels:
Assay in all cases: NCI tumour cell line growth inhibition, 48 h
A549 = system: A549
HCT-15 = system: HCT-15
SK-MEL-2 = system: SK-MEL-2
HCC 2998 = system: HCC 2998
SNB-75 = system: SNB-75
MDA-MB-435 = system: MDA-MB-435
NCI-H23 = system: NCI-H23
HL-60 = system: HL-60
SF-268 = system: SF-268
SW-620 = system: SW-620
M14 = system: M14
COLO 205 = system: COLO 205
OVCAR-5 = system: OVCAR-5
SF-539 = system: SF-539
RPMI-8226 = system: RPMI-8226
SNB-19 = system: SNB-19
DU-145 = system: DU-145
SN12C = system: SN12C
TK-10 = system: TK-10
MDA-MB-231 = system: MDA-MB-231
HOP-92 = system: HOP-92
HOP-62 = system: HOP-62
NCI-H522 = system: NCI-H522
ACHN = system: ACHN
A498 = system: A498
OVCAR-3 = system: OVCAR-3
OVCAR-4 = system: OVCAR-4
OVCAR-8 = system: OVCAR-8
Malme-3M = system: Malme-3M
HCT-116 = system: HCT-116
NCI-H460 = system: NCI-H460
RXF 393 = system: RXF 393
Hs-578T = system: Hs-578T
PC-3 = system: PC-3
SR = system: SR
LOX IMVI = system: LOX IMVI
786-0 = system: 786-0
IGROV-1 = system: IGROV-1
SK-MEL-5 = system: SK-MEL-5
SK-MEL-28 = system: SK-MEL-28
T47D = system: T47D
UACC-62 = system: UACC-62
MDA-N = system: MDA-N
UACC-257 = system: UACC-257
BT-549 = system: BT-549
K562 = system: K562
KM12 = system: KM12
CCRF-CEM = system: CCRF-CEM
MCF7 = system: MCF7
EKVX = system: EKVX
U-251 = system: U-251
NCI-H226 = system: NCI-H226
HT-29 = system: HT-29
SF-295 = system: SF-295
NCI/ADR-RES = system: NCI/ADR-RES
UO-31 = system: UO-31
MOLT-4 = system: MOLT-4
SK-OV-3 = system: SK-OV-3
CAKI-1 = system: CAKI-1

## COC(=O)C1(Cc2ccccc2)Cc2cc3c(cc2C1=O)CCC3 (stereo unspecified)
A549
  GI50: 16.6 µM (inactive)
HCT-15
  GI50: 31.6 µM
SK-MEL-2
  GI50: 18.3 µM (inactive)
HCC 2998
  GI50: 2.81 µM (inactive)
SNB-75
  GI50: 27.7 µM (inactive)
MDA-MB-435
  GI50: 15.1 µM (inactive)
NCI-H23
  GI50: 56.2 µM (inactive)
HL-60
  GI50: 14.6 µM (inactive)
SF-268
  GI50: 22.2 µM (inactive)
SW-620
  GI50: 29.6 µM (inactive)
M14
  GI50: 20 µM (inactive)
COLO 205
  GI50: 19.5 µM (inactive)
OVCAR-5
  GI50: 58.9 µM (inactive)
SF-539
  GI50: 43.2 µM (inactive)
RPMI-8226
  GI50: 23.1 µM (inactive)
SNB-19
  GI50: 47.1 µM (inactive)
DU-145
  GI50: 48.1 µM (inactive)
SN12C
  GI50: 37.3 µM (inactive)
TK-10
  GI50: 64 µM (inactive)
MDA-MB-231
  GI50: 43.6 µM (inactive)
HOP-92
  GI50: 11.6 µM (inactive)
HOP-62
  GI50: 80.5 µM (inactive)
NCI-H522
  GI50: 21.2 µM (inactive)
ACHN
  GI50: 49.8 µM (inactive)
A498
  GI50: 28.2 µM (inactive)
OVCAR-3
  GI50: 40 µM (inactive)
OVCAR-4
  GI50: 33.7 µM (inactive)
OVCAR-8
  GI50: 31.2 µM (inactive)
Malme-3M
  GI50: 22.5 µM (inactive)
HCT-116
  GI50: 23.8 µM (inactive)
NCI-H460
  GI50: 4.44 µM (inactive)
RXF 393
  GI50: 36.8 µM (inactive)
Hs-578T
  GI50: 49.7 µM (inactive)
PC-3
  GI50: 26.1 µM (inactive)
SR
  GI50: 21.9 µM (inactive)
LOX IMVI
  GI50: 27 µM (inactive)
786-0
  GI50: 39.4 µM (inactive)
IGROV-1
  GI50: 36 µM (inactive)
SK-MEL-5
  GI50: 16.6 µM (inactive)
SK-MEL-28
  GI50: 46.2 µM (inactive)
T47D
  GI50: 13.4 µM (inactive)
UACC-62
  GI50: 33.4 µM (inactive)
MDA-N
  GI50: 15 µM (inactive)
UACC-257
  GI50: 36.9 µM (inactive)
BT-549
  GI50: 43.7 µM (inactive)
K562
  GI50: 31.4 µM (inactive)
KM12
  GI50: 19.8 µM (inactive)
CCRF-CEM
  GI50: 22.6 µM (inactive)
MCF7
  GI50: 13.9 µM (inactive)
EKVX
  GI50: 25.3 µM (inactive)
U-251
  GI50: 33.6 µM (inactive)
NCI-H226
  GI50: 27.4 µM (inactive)
HT-29
  GI50: 12 µM (inactive)
SF-295
  GI50: 38.2 µM (inactive)
NCI/ADR-RES
  GI50: 30.5 µM (inactive)
UO-31
  GI50: 34.5 µM (inactive)
MOLT-4
  GI50: 17.1 µM (inactive)
SK-OV-3
  GI50: 41.1 µM (inactive)

## NC(CCCCNc1ccn(C2OC(CO)C(O)C2O)c(=O)n1)C(=O)O (stereo unspecified)
A549
  GI50: 50.5 µM (inactive)
HCT-15
  GI50: 74.5 µM
SK-MEL-2
  GI50: 77.8 µM (inactive)
HCC 2998
  GI50: 76.6 µM (inactive)
SNB-75
  GI50: > 100 µM (inactive)
MDA-MB-435
  GI50: 88.1 µM (inactive)
HL-60
  GI50: > 100 µM (inactive)
SF-268
  GI50: > 100 µM (inactive)
SW-620
  GI50: > 100 µM (inactive)
M14
  GI50: 37.8 µM (inactive)
COLO 205
  GI50: > 100 µM (inactive)
OVCAR-5
  GI50: > 100 µM (inactive)
SF-539
  GI50: > 100 µM (inactive)
RPMI-8226
  GI50: > 100 µM (inactive)
SNB-19
  GI50: > 100 µM (inactive)
DU-145
  GI50: > 100 µM (inactive)
SN12C
  GI50: > 100 µM (inactive)
TK-10
  GI50: > 100 µM (inactive)
MDA-MB-231
  GI50: > 100 µM (inactive)
HOP-92
  GI50: 53.7 µM (inactive)
NCI-H522
  GI50: > 100 µM (inactive)
ACHN
  GI50: > 100 µM (inactive)
A498
  GI50: > 100 µM (inactive)
OVCAR-3
  GI50: > 100 µM (inactive)
OVCAR-4
  GI50: > 100 µM (inactive)
OVCAR-8
  GI50: 73.1 µM (inactive)
CAKI-1
  GI50: > 100 µM (inactive)
Malme-3M
  GI50: > 100 µM (inactive)
NCI-H460
  GI50: > 100 µM (inactive)
RXF 393
  GI50: > 100 µM (inactive)
Hs-578T
  GI50: > 100 µM (inactive)
PC-3
  GI50: > 100 µM (inactive)
SR
  GI50: > 100 µM (inactive)
LOX IMVI
  GI50: > 100 µM (inactive)
786-0
  GI50: > 100 µM (inactive)
IGROV-1
  GI50: 65.8 µM (inactive)
SK-MEL-5
  GI50: > 100 µM (inactive)
SK-MEL-28
  GI50: > 100 µM (inactive)
T47D
  GI50: > 100 µM (inactive)
UACC-62
  GI50: > 100 µM (inactive)
MDA-N
  GI50: > 100 µM (inactive)
UACC-257
  GI50: > 100 µM (inactive)
BT-549
  GI50: > 100 µM (inactive)
K562
  GI50: > 100 µM (inactive)
KM12
  GI50: > 100 µM (inactive)
CCRF-CEM
  GI50: 35 µM (inactive)
MCF7
  GI50: > 100 µM (inactive)
EKVX
  GI50: > 100 µM (inactive)
U-251
  GI50: 97.1 µM (inactive)
NCI-H226
  GI50: > 100 µM (inactive)
SF-295
  GI50: 30.6 µM (inactive)
NCI/ADR-RES
  GI50: > 100 µM (inactive)
UO-31
  GI50: > 100 µM (inactive)
MOLT-4
  GI50: 73.3 µM (inactive)

## O=C1CSC2(CC(/C=C/c3ccccc3)=NN2c2cccc(S(=O)(=O)O)c2)N1c1nc2ccccc2s1 (stereo unspecified)
A549
  GI50: 32.8 µM (inactive)
HCT-15
  GI50: 32.6 µM
SK-MEL-2
  GI50: 22.6 µM (inactive)
HCC 2998
  GI50: 59.4 µM (inactive)
SNB-75
  GI50: 26.7 µM (inactive)
MDA-MB-435
  GI50: 19.5 µM (inactive)
NCI-H23
  GI50: 22 µM (inactive)
HL-60
  GI50: 27 µM (inactive)
SW-620
  GI50: 29.6 µM (inactive)
M14
  GI50: 41.3 µM (inactive)
COLO 205
  GI50: > 100 µM (inactive)
OVCAR-5
  GI50: 27.8 µM (inactive)
SF-539
  GI50: 39.7 µM (inactive)
RPMI-8226
  GI50: 24.6 µM (inactive)
SNB-19
  GI50: 21.5 µM (inactive)
DU-145
  GI50: 25.4 µM (inactive)
SN12C
  GI50: 28.7 µM (inactive)
TK-10
  GI50: 19.5 µM (inactive)
MDA-MB-231
  GI50: 24.5 µM (inactive)
HOP-92
  GI50: 21.7 µM (inactive)
NCI-H522
  GI50: 19.5 µM (inactive)
ACHN
  GI50: 27 µM (inactive)
A498
  GI50: 26 µM (inactive)
OVCAR-4
  GI50: 20.9 µM (inactive)
OVCAR-8
  GI50: 17.9 µM (inactive)
CAKI-1
  GI50: 38.5 µM (inactive)
Malme-3M
  GI50: 69.7 µM (inactive)
HCT-116
  GI50: 36.8 µM (inactive)
NCI-H460
  GI50: 26.3 µM (inactive)
RXF 393
  GI50: 22.1 µM (inactive)
Hs-578T
  GI50: 55.5 µM (inactive)
PC-3
  GI50: 25.6 µM (inactive)
SR
  GI50: 21.8 µM (inactive)
LOX IMVI
  GI50: 9.59 µM (inactive)
786-0
  GI50: 18.3 µM (inactive)
IGROV-1
  GI50: 16.1 µM (inactive)
SK-MEL-5
  GI50: 44.6 µM (inactive)
SK-MEL-28
  GI50: 62.4 µM (inactive)
T47D
  GI50: 17.1 µM (inactive)
UACC-62
  GI50: 18.9 µM (inactive)
MDA-N
  GI50: 35.2 µM (inactive)
UACC-257
  GI50: 60 µM (inactive)
BT-549
  GI50: 24.8 µM (inactive)
K562
  GI50: 35.1 µM (inactive)
KM12
  GI50: 19.4 µM (inactive)
CCRF-CEM
  GI50: 19.1 µM (inactive)
MCF7
  GI50: 17.1 µM (inactive)
EKVX
  GI50: 60.4 µM (inactive)
U-251
  GI50: 20.6 µM (inactive)
NCI-H226
  GI50: 37.5 µM (inactive)
HT-29
  GI50: 38.3 µM (inactive)
NCI/ADR-RES
  GI50: 34.1 µM (inactive)
UO-31
  GI50: 18.5 µM (inactive)
MOLT-4
  GI50: 24.9 µM (inactive)
